The values below come from patent EP4635969A1, “NOVEL GLUCOCORTICOID, METHOD FOR PREPARING SAME, AND USE THEREOF” (Tianjin Pharmaceutical Biotechnology Co., Ltd., priority 2022, dated 2024).

Molecules are shown by their SMILES.

The experiment addresses T1, glucocorticoid receptor (GR) (Homo sapiens, UniProt P04150).
T1 sequence (P04150 521-777): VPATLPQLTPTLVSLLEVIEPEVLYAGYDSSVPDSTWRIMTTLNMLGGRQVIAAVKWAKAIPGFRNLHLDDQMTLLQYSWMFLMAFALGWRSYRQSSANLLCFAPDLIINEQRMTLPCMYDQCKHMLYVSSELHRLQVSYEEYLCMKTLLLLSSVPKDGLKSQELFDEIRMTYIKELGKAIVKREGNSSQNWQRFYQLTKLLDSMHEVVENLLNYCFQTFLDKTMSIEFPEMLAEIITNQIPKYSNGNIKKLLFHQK
As to the kind of experiment: Assay for agonist activity on glucocorticoid receptor (luciferase reporter, HEK293 cells transfected with pBIND-GR plasmid). Format: cell-based. The settings on record: HEK293 cells transfected with pBIND-GR, luciferase signal; read-out: GR agonist EC50. As to the method: Pharmacological Example 1: Assay for Agonist Activity on Glucocorticoid Receptor (GR)
The test compounds were subjected to a 4-fold serial dilution starting from an initial concentration of 10 µ M, generating a 10-point concentration gradient with duplicate wells for each concentration. The blank control consisted of 0.1 % DMSO.
The HEK293 stable cell line […] transfected with glucocorticoid receptor (GR) (ICE Bioscience, Lot No. TYP-20220519) was cultured in Dulbecco's Modified Eagle Medium (DMEM) supplemented with 10% fetal bovine serum (FBS) and 200 µ g/ml Hygromycin B in a cell incubator containing 5% CO2 at 37 °C. The spent medium was aspirated and the cells were washed once with phosphate-buffered saline (PBS). Then, 1 mL of TrypLE™ Express solution was added, and the cells were incubated at 37 °C for approximately 2 min. When the cells detached from the bottom of the cell culture dish, approximately 5 mL of pre-warmed complete medium at 37 °C was added. The cell suspension was gently pipetted with a pipette to dissociate clumped cells. The cell suspension was transferred to a sterile centrifuge tube and centrifuged at 1000 rpm for 5 min to pellet the cells for experiments or subculture.
HEK293 cells were digested and seeded into 6-cm culture dishes. The pBIND-GR plasmid was transfected into the HEK293 cells using a transfection reagent, resulting in HEK293 cells successfully transfected with the pBIND-GR plasmid. The cells were resuspended in phenol red-free DMEM medium containing 5% charcoal-stripped serum, counted, and then seeded into 96-well plates. The test compounds were added, and the plates were then incubated in an incubator. The luminescence signal values were measured using a multimode microplate reader following the instructions of the luciferase assay kit. The EC50 values of each test compound were calculated using the nonlinear fitting formula with GraphPad Prism 8.0 software.

With `C[C@]12C=CC(=O)C=C1CC[C@H]1[C@@H]3C[C@H]4OC(c5cnc(CSC6CCOC6=O)nc5)O[C@@]4(C(=O)CO)[C@@]3(C)C[C@H](O)[C@@]12Cl` (stereo partly drawn) [Compound 54, (6aS,6bR,7S,8aS,8bS,11aR,12aS,12bS)-6b-Chloro-7-hydroxy-8b-(2-hydroxyacetyl)-6a,8a-dimethyl-10-(2-(((2-oxotetrahydrofuran-3-yl)thio)methyl)pyrimidin-5-yl)-1,2,6a,6b,7,8,8a,8b,11a,12,12a, 12b-dodecahydro-4H-naphtho[2',1':4,5]indeno[1,2-d][1,3]dioxol-4-one], the EC50 was found to be 5.64 nM.
To `C[C@]12C=CC(=O)C=C1[C@@H](F)C[C@H]1[C@@H]3C[C@H]4OC(c5ccc(CSC6CCOC6=O)cn5)O[C@@]4(C(=O)CO)[C@@]3(C)C[C@H](O)[C@@]12F` (stereo partly drawn) [Compound 49, (2S,6aS,6bR,7S,8aS,8bS,11aR,12aS,12bS)-2,6b-Difluoro-7-hydroxy-8b-(2-hydroxyacetyl)-6a,8a-dimethyl-10-(5-(((2-oxotetrahydrofuran-3-yl)thio)methyl)pyridin-2-yl)-1,2,6a,6b,7,8,8a,8b,11a,12, 12a,12b-dodecahydro-4H-naphtho[2',1':4,5]indeno[1,2-d][1,3]dioxol-4-one] belongs 1.12 nM; to `C[C@]12C=CC(=O)C=C1CC[C@H]1[C@@H]3C[C@H]4OC(c5ccc(C[S+]([O-])C6CCOC6=O)cc5)O[C@@]4(C(=O)CO)[C@@]3(C)C[C@H](O)[C@@]12F` (stereo partly drawn) [Compound 56, (6aS,6bR,7S,8aS,8bS,11aR,12aS,12bS)-6b-Fluoro-7-hydroxy-8b-(2-hydroxyacetyl)-6a,8a-dimethyl-10-(4-(((2-oxotetrahydrofuran-3-yl)sulfinyl)methyl)phenyl)-1,2,6a,6b,7,8,8a,8b,11a,12,12a,12b-dodecahydro-4H-naphtho[2',1':4,5]indeno[1,2-d][1,3]dioxol-4-one], 1.56 nM.
Turning to `C[C@]12C=CC(=O)C=C1[C@@H](F)C[C@H]1[C@@H]3C[C@H]4OC(c5ccc(CS(=O)(=O)C6CCOC6=O)cc5)O[C@@]4(C(=O)CO)[C@@]3(C)C[C@H](O)[C@@]12F` (stereo partly drawn) [Compound 58, (2S,6aS,6bR,7S,8aS,8bS,11aR,12aS,12bS)-2,6b-Difluoro-7-hydroxy-8b-(2-hydroxyacetyl)-6a,8a-dimethyl-10-(4-(((2-oxotetrahydrofuran-3-yl)sulfonyl)methyl)phenyl)-1,2,6a,6b,7,8,8a,8b,11a,12, 12a,12b-dodecahydro-4H-naphtho[2',1':4,5]indeno[1,2-d][1,3]dioxol-4-one], the EC50 came out at 3.67 nM.
To `C[C@]12C=CC(=O)C=C1CC[C@H]1[C@@H]3C[C@H]4OC(c5ccc(C[S+]([O-])C6CCOC6=O)cc5)O[C@@]4(C(=O)CO)[C@@]3(C)C[C@H](O)[C@@]12Cl` (stereo partly drawn) [Compound 57, (6aS,6bR,7S,8aS,8bS,11aR,12aS,12bS)-6b-Chloro-7-hydroxy-8b-(2-hydroxyacetyl)-6a,8a-dimethyl-10-(4-(((2-oxotetrahydrofuran-3-yl)sulfinyl)methyl)phenyl)-1,2,6a,6b,7,8,8a,8b,11a,12,12a,12b-dodecahydro-4H-naphtho[2',1':4,5]indeno[1,2-d][1,3]dioxol-4-one] belongs 0.86 nM; to `C[C@]12C=CC(=O)C=C1CC[C@@H]1[C@@H]2[C@@H](O)C[C@@]2(C)[C@H]1C[C@H]1OC(c3ccc(COC4CCOC4=O)cc3)O[C@]12C(=O)CO` (stereo partly drawn) [Compound 28, (6aR,6bS, 7S,8aS,8bS,11aR,12aS,12bS)-7-Hydroxy-8b-(2-hydroxyacetyl)-6a,8a-dimethyl-10-(4-(( (2-oxotetrahydrofuran-3-yl)oxy)methyl)phenyl)-1,2,6a,6b,7,8,8a,8b,11a,12,12a,12b-dodecahydro-4H-naphtho[2',1':4,5]indeno[1,2-d][1,3]dioxol-4-one], 4.24 nM.
Regarding `C[C@]12C=CC(=O)C=C1CC[C@H]1[C@@H]3C[C@H]4OC(c5ccc(CSC6CCOC6=O)cn5)O[C@@]4(C(=O)CO)[C@@]3(C)C[C@H](O)[C@@]12F` (stereo partly drawn) [Compound 50, (6aS,6bR,7S,8aS,8bS,11aR,12aS,12bS)-6b-Fluoro-7-hydroxy-8b-(2-hydroxyacetyl)-6a,8a-dimethyl-10-(5-(((2-oxotetrahydrofuran-3-yl)thio)methyl)pyridin-2-yl)-1,2,6a,6b,7,8,8a,8b,11a,12,12a,12 b-dodecahydro-4H-naphtho[2',1':4,5]indeno[1,2-d][1,3]dioxol-4-one], the 50% effective concentration (EC50) was determined as 0.98 nM.
With `C[C@]12C=CC(=O)C=C1[C@@H](F)C[C@H]1[C@@H]3C[C@H]4OC(C5CCC(NC(=O)C6COC(=O)C6)CC5)O[C@@]4(C(=O)CO)[C@@]3(C)C[C@H](O)[C@@]12F` (stereo partly drawn) [Compound 3, N-(4-((2S,6aS,6bR,7S,8aS,8bS,11aR,12aS,12bS)-2,6b-Difluoro-7-hydroxy-8b-(2-hydroxyacetyl)-6a,8a-dimethyl-4-oxo-2,4,6a,6b,7,8,8a,8b,11a,12,12a,12b-dodecahydro-1H-naphtho[2',1':4,5]indeno[1,2-d][1,3]dioxol-10-yl)cyclohexyl)-5-oxotetrahydrofuran-3-carboxamide] the figure was 17.6 nM; with `C[C@]12C=CC(=O)C=C1CC[C@H]1[C@@H]3C[C@H]4OC(c5ccc(NC6CCOC6=O)cc5)O[C@@]4(C(=O)CO)[C@@]3(C)C[C@H](O)[C@@]12F` (stereo partly drawn) [Compound 42, (6aS,6bR,7S,8aS,8bS,11aR,12aS,12bS)-6b-Fluoro-7-hydroxy-8b-(2-hydroxyacetyl)-6a,8a-dimethyl-10-(4-((2-oxotetrahydrofuran-3-yl)amino)phenyl)-1,2,6a,6b,7,8,8a,8b,11a,12,12a,12b-dodecahy dro-4H-naphtho[2',1':4,5]indeno[1,2-d][1,3]dioxol-4-one], 19.5 nM.
To `C[C@]12C=CC(=O)C=C1CC[C@H]1[C@@H]3C[C@H]4OC(c5ccc(CC6CCOC6=O)cc5)O[C@@]4(C(=O)CO)[C@@]3(C)C[C@H](O)[C@@]12F` (stereo partly drawn) [Compound 43, (6aS,6bR,7S,8aS,8bS,11aR,12aS,12bS)-6b-Fluoro-7-hydroxy-8b-(2-hydroxyacetyl)-6a,8a-dimethyl-10-(4-((2-oxotetrahydrofuran-3-yl)methyl)phenyl)-1,2,6a,6b,7,8,8a,8b,11a,12,12a,12b-dodecah ydro-4H-naphtho[2',1':4,5]indeno[1,2-d][1,3]dioxol-4-one] belongs 7.71 nM; to `C[C@]12C=CC(=O)C=C1CC[C@H]1[C@@H]3C[C@H]4OC(c5ccc(CS(=O)(=O)C6CCOC6=O)cc5)O[C@@]4(C(=O)CO)[C@@]3(C)C[C@H](O)[C@@]12Cl` (stereo partly drawn) [Compound 60, (6aS,6bR,7S,8aS,8bS,11aR,12aS,12bS)-6b-Chloro-7-hydroxy-8b-(2-hydroxyacetyl)-6a,8a-dimethyl-10-(4-(((2-oxotetrahydrofuran-3-yl)sulfonyl)methyl)phenyl)-1,2,6a,6b,7,8,8a,8b,11a,12,12a,12b-dodecahydro-4H-naphtho[2',1':4,5]indeno[1,2-d][1,3]dioxol-4-one], 3.5 nM; to `C[C@]12C=CC(=O)C=C1CC[C@H]1[C@@H]3C[C@H]4OC(C5CCN(CC6CCOC6=O)CC5)O[C@@]4(C(=O)CO)[C@@]3(C)C[C@H](O)[C@@]12F` (stereo partly drawn) [Compound 44, (6aS,6bR,7S,8aS,8bS,11aR,12aS,12bS)-6b-Fluoro-7-hydroxy-8b-(2-hydroxyacetyl)-6a,8a-dimethyl-10-(1-((2-oxotetrahydrofuran-3-yl)methyl)piperidin-4-yl)-1,2,6a,6b,7,8,8a,8b,11a,12,12a,12b-d odecahydro-4H-naphtho[2',1':4,5]indeno[1,2-d][1,3]dioxol-4-one], 15.1 nM.
